pIC50: −log10 of the molar value.

This test deals with T1, human CCR1 (Homo sapiens, UniProt P32246).
T1 sequence (P32246 1-355): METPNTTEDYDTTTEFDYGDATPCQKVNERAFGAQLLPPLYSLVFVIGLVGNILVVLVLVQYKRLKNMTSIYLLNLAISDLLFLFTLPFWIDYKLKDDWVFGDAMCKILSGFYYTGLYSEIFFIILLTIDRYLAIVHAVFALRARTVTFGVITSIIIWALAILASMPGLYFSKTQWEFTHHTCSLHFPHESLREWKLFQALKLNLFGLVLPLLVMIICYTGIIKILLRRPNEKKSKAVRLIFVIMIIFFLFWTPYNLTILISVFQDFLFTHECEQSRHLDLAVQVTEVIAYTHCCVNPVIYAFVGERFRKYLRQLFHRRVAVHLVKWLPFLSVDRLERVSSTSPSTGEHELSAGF
Briefly: CCR1 binding protocol (SPA, [125I]-MIP-1α displacement). The following applies: cell membrane expressing human CCR1, 0.1 nM [125I]-MIP-1α, 4 hours at ambient temperature; read-out: Relative potency (IC50). A digest of the protocol: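 Displacement of 0.1 nM [125I]-MIP-1α (final) from membranes expressing human CCR1 was measured by scintillation proximity after 4 h at ambient temperature. Conditions: pH 7.4 Tris buffer with 0.1% BSA and MnCl, and 0.5 μg membrane per well. Compounds were tested as a 10-step ½-log series from a 10 mM DMSO stock to derive IC50.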
As to `Cc1oc(-c2ccccc2)cc1NC(=O)N1CCC[C@@H]1c1nccn1Cc1ccc(Cl)cc1` [Compound 31], the negative-log IC50 (pIC50) is > 7.30.
For `Cc1nnc([C@H]2CCCN2C(=O)Nc2ccc(C#N)c(C(F)(F)F)c2)n1Cc1ccc(Cl)cc1` [Compound 525] the value was 6.30 to 7.30; for `CC(=O)O[C@@H]1C[C@H](c2ncnn2Cc2ccc(Cl)cc2)N(C(=O)Nc2ccc(Cl)cc2F)C1` [Compound 485], 5.30 to 6.30; for `Cc1noc([C@H]2CCCN2C(=O)Nc2ccc(C(F)(F)F)cc2)c1Cc1ccc(Cl)cc1` [Compound 6], 5.30 to 6.30.
For `CCc1nnc([C@H]2CCCN2C(=O)Nc2c(C)cc(C(F)(F)F)cc2C)n1Cc1ccc(Cl)cc1` [Compound 167] the value was > 7.30; for `O=C(N[C@H]1CCOc2cc(C(F)(F)F)ccc21)N1C[C@H](O)C[C@@H]1c1nncn1Cc1ccc(Cl)cc1` [Compound 472], > 7.30; for `COC(=O)c1cc(NC(=O)N2CCC[C@@H]2c2nnc(C)n2Cc2ccc(Cl)cc2)c(C)cc1C` [Compound 318], > 7.30.
For `Cc1nnc([C@H]2CCCN2C(=O)CC2CCOc3cc(C(F)(F)F)ccc32)n1Cc1ccc(Cl)cc1` (some centres unmarked) [Compound 515] the value was > 7.30; for `Cc1nnc([C@H]2CCCN2C(=O)NC2(c3ccccc3)CC2)n1C1(c2ccc(Cl)cc2)CC1` [Compound 329], 6.30 to 7.30; for `CNS(=O)(=O)c1cc(NC(=O)N2CCC[C@@H]2c2nnc(C)n2Cc2ccc(Cl)cc2)c(C)cc1C` [Compound 484], > 7.30.
As for `Cc1nnc([C@H]2CCCN2C(=O)Nc2cc(C(=O)N(C)C)ccc2F)n1Cc1ccc(Cl)cc1` [Compound 302], the pIC50 is 6.30 to 7.30.
For `Cc1nnc([C@H]2CCCN2C(=O)NCc2ccccc2)n1Cc1ccc(Cl)cc1` [Compound 224] the value was 6.30 to 7.30; for `O=C(NCc1ccc(Cl)cc1Cl)N1CCC[C@@H]1c1nccn1Cc1ccc(Cl)cc1` [Compound 43], 6.30 to 7.30; for `Cc1ncnc([C@H]2CCCN2C(=O)Nc2c(C)noc2C)c1Cc1ccc(Cl)cc1` [Compound 19], 6.30 to 7.30.
As to `Cc1nnc([C@H]2CCCN2C(=O)Nc2ccc3[nH]ccc3c2)n1Cc1ccc(Cl)cc1` [Compound 603], the pIC50 is 5.30 to 6.30.
For `Cc1nnc([C@H]2CCCN2C(=O)Nc2c(F)cc(Cl)cc2F)n1Cc1ccc(Cl)cc1` [Compound 429] the value was > 7.30.
Turning to `Cc1nnc([C@H]2CCCN2C(=O)Nc2cc(C(=O)O)ccc2Cl)n1Cc1ccc(Cl)cc1` [Compound 298], the negative logarithm of the IC50 (pIC50) was 5.30 to 6.30.
For `Cc1noc([C@H]2CCCN2C(=O)Nc2c(C)noc2C)c1Cc1ccc(Cl)cc1` [Compound 1] the value was > 7.30; for `Cc1cc(NC(=O)N2CCC[C@@H]2c2nnc(C)n2Cc2ccc(Cl)cc2)nc(C)n1` [Compound 256], 5.30 to 6.30.
For `Cc1nnc([C@H]2CCCN2C(=O)N[C@H](C)c2cccnc2)n1Cc1ccc(Cl)cc1` [Compound 140] the value was 6.30 to 7.30; for `Cc1cc(C(F)(F)F)cc(C)c1NC(=O)N1CCC[C@@H]1c1nccn1Cc1ccc(Cl)cc1` [Compound 30], > 7.30.
On to `CC(=O)O[C@@H]1C[C@H](c2ncnn2Cc2ccc(Cl)cc2)N(C(=O)N[C@H]2CCOc3cc(C(F)(F)F)ccc32)C1` [Compound 488], for which the pIC50 was > 7.30.
As for `Cc1nnc([C@H]2CCCN2/C(=N/C#N)Nc2ccc(Cl)cc2F)n1Cc1ccc(Cl)cc1` [Compound 529], the pIC50 was 6.30 to 7.30.
Regarding `COC(=O)c1cc(C)ccc1NC(=O)N1CCC[C@@H]1c1nnc(C)n1Cc1ccc(Cl)cc1` [Compound 248], the pIC50 is 5.30 to 6.30.
For `Cc1nc(C(F)(F)F)ccc1NC(=O)N1CC(C)(O)C[C@@H]1c1nnc(C)n1Cc1ccc(Cl)cc1` (some centres unmarked) [Compound 517] the value was 6.30 to 7.30.
For `CNS(=O)(=O)c1ccc(NC(=O)N2CCC[C@@H]2c2nnc(C)n2Cc2ccc(Cl)cc2)c(Cl)c1` [Compound 452] the value was > 7.30; for `Cc1nnc([C@H]2CCCN2C(=O)Nc2ccccn2)n1Cc1ccc(Cl)cc1` [Compound 253], 5.30 to 6.30.
For `Cc1nnc([C@H]2CCCN2C(=O)Cc2ccc(C(F)(F)F)cc2)n1Cc1ccc(Cl)cc1` [Compound 173] the value was 6.30 to 7.30; for `Cc1nnc([C@H]2CCCN2C(=O)Oc2ccc(F)cc2)n1Cc1ccc(Cl)cc1` [Compound 176], 5.30 to 6.30.
As for `O=C(NC1CCS(=O)(=O)c2ccccc21)N1CCC[C@@H]1c1nncn1Cc1ccc(Cl)cc1` (some centres unmarked) [Compound 110], the pIC50 was > 7.30.
For `CNC(=O)c1cc(NC(=O)N2CCC[C@@H]2c2nnc(C)n2Cc2ccc(Cl)cc2)c(C)cc1C` [Compound 380] the value was > 7.30; for `COC(=O)c1ccc(C(F)(F)F)c(NC(=O)N2CCC[C@@H]2c2nnc(C)n2Cc2ccc(Cl)cc2)c1` [Compound 317], 6.30 to 7.30.
For `Cc1nnc([C@H]2CCCN2c2c(Nc3ccc(Cl)cc3F)c(=O)c2=O)n1Cc1ccc(Cl)cc1` [Compound 536] the value was 5.30 to 6.30; for `O=C(NCc1ccc(C(F)(F)F)cc1)N1CCC[C@@H]1c1ncncc1Cc1ccc(Cl)cc1` [Compound 25], 6.30 to 7.30.
Regarding `COC(=O)c1ccc(NC(=O)N2CCC[C@@H]2c2nnc(C)n2Cc2ccc(Cl)cc2)c(C)c1` [Compound 215], the pIC50 was > 7.30.
For `O=C(N[C@H]1CCOc2cc(C(F)(F)F)ccc21)N1CCC[C@@H]1c1nnc(CO)n1Cc1ccc(Cl)cc1` [Compound 308] the value was > 7.30; for `Cc1nc(C(F)(F)F)ccc1NC(=O)N1CCC[C@@H]1c1nnsc1Cc1ccc(Cl)cc1` [Compound 632], > 7.30; for `Cc1nnc([C@H]2CCCN2C(=O)Nc2ccc(F)cc2F)n1Cc1ccc(Cl)cc1` [Compound 422], 6.30 to 7.30.
For `O=C(N[C@H]1CCCOc2ccc(Cl)cc21)N1CCC[C@@H]1c1ncnn1Cc1ccc(Cl)cc1` [Compound 93] the value was 6.30 to 7.30.
For `Cc1nnc([C@H]2CCCN2C(=O)NC(C)(C)c2ccc(F)cc2)n1Cc1ccc(Cl)cc1` [Compound 275] the value was > 7.30; for `O=C(NC1CCCOc2cc(Cl)ccc21)N1CCC[C@@H]1c1ncnn1Cc1ccc(Cl)cc1` (some centres unmarked) [Compound 88], 5.30 to 6.30; for `CCc1nnc([C@H]2CCCN2C(=O)N[C@H]2CCOc3cc(C(F)(F)F)ccc32)n1Cc1ccc(Cl)cc1` [Compound 209], > 7.30.
Turning to `Cc1nnc([C@H]2CCCN2C(=O)N[C@H]2CCOc3cc(C(F)(F)F)ccc32)n1Cc1ccc(Cl)cc1` [Compound 111], the pIC50 is > 7.30.
For `Cc1nnc([C@H]2CCCN2C(=O)Nc2ccc3c(c2)OCC(=O)N3C)n1Cc1ccc(Cl)cc1` [Compound 339] the value was 5.30 to 6.30.
On to `CC[C@@H](NC(=O)N1C[C@H](O)C[C@@H]1c1nnc(C)n1Cc1ccc(Cl)cc1)c1ccc(C)o1` [Compound 501], for which the pIC50 is 6.30 to 7.30.
For `Cc1nnc([C@H]2CCCN2C(=O)NC2(c3ccccc3C(F)(F)F)CC2)n1Cc1ccc(Cl)cc1` [Compound 264] the value was 5.30 to 6.30; for `CC[C@H](Nc1c(N2CCC[C@@H]2c2nnc(C)n2Cc2ccc(Cl)cc2)c(=O)c1=O)c1ccc(C(F)(F)F)nc1` [Compound 562], 6.30 to 7.30.
For `O=C(Nc1ccc(C(F)(F)F)cc1)N1CCC[C@@H]1c1oncc1Cc1ccc(Cl)cc1` [Compound 5] the value was 6.30 to 7.30; for `CC[C@H](C)NC(=O)N1CCC[C@@H]1c1nnc(C)n1Cc1ccc(Cl)cc1` [Compound 407], 6.30 to 7.30; for `Cc1nnc(C2C3CC3CN2C(=O)N[C@H]2CCOc3cc(C(F)(F)F)ccc32)n1Cc1ccc(Cl)cc1` (some centres unmarked) [Compound 546], 6.30 to 7.30.
For `Cc1nnc([C@H]2CCCN2C(=O)Nc2cc(F)c(Cl)cc2F)n1Cc1ccc(Cl)cc1` [Compound 427] the value was > 7.30; for `Cc1noc(-c2ccccc2)c1NC(=O)N1CCC[C@@H]1c1nncn1Cc1ccc(Cl)cc1` [Compound 105], > 7.30.
With `Cc1nnc([C@H]2CCCN2C(=O)Nc2ccc(C(F)(F)F)nc2Cl)n1Cc1ccc(Cl)cc1` [Compound 524], the pIC50 is > 7.30.
For `Cc1nnc([C@H]2CCCN2C(=O)N[C@H]2CCOc3cc(C(F)(F)F)ccc32)n1Cc1cccc(Br)c1` [Compound 540] the value was 5.30 to 6.30; for `O=C(N[C@H]1CCCOc2ccc(Cl)cc21)N1CCC[C@@H]1c1nncn1Cc1ccc(Cl)cc1` [Compound 159], 6.30 to 7.30.
For `O=C(Nc1ccc(C(F)(F)F)cc1)N1CCC[C@@H]1c1nncn1Cc1ccc(Cl)cc1` [Compound 108] the value was > 7.30; for `Cc1cc(Cl)ccc1NC(=O)N1CCC[C@@H]1c1nnc(C)n1Cc1ccc(Cl)cc1` [Compound 409], > 7.30; for `Cc1nnc([C@H]2CCCN2C(=O)C(C)c2cc(C(F)(F)F)ccc2Cl)n1Cc1ccc(Cl)cc1` (some centres unmarked) [Compound 533], 6.30 to 7.30.
For `C[C@H](NC(=O)N1CCC[C@@H]1c1ncnn1Cc1ccc(Cl)cc1)c1cc2ccccc2o1` [Compound 81] the value was > 7.30; for `Cc1nnc([C@H]2CCCN2C(=O)Nc2ccc(Cl)cc2F)n1[C@H](C)c1ccc(Cl)cc1` [Compound 349], 6.30 to 7.30.
As for `Cc1ccc(S(C)(=O)=O)c(C)c1NC(=O)N1CCC[C@@H]1c1nnc(C)n1Cc1ccc(Cl)cc1` [Compound 406], the pIC50 was > 7.30.
For `COCc1nnc([C@H]2CCCN2C(=O)N[C@H]2CCOc3cc(C(F)(F)F)ccc32)n1Cc1ccc(Cl)cc1` [Compound 459] the value was > 7.30.

In general, pIC50 refers to −log10 of the IC50, conventionally taken in molar units.

Source of the values: patent publication US8288371B2, “Ortho pyrrolidine, benzyl-substituted heterocycle CCR1 antagonists for autoimmune diseases and inflammation” (Pharmacopeia, LLC, priority 2007, dated 2012).
